Where “and” joins values, the source holds several entries; their conditions need not be identical. Equal entries are not always repeated.
Legend:
red cells = assay: Hemolysis assay; format: cell-based, Human; settings: 5×10^7 red cells, 37° C., 3 hours; read-out: IC50 (concentration that causes 50% hemolysis)
Experimental: Human umbilical cord blood was obtained from healthy donors after informed consent. The red cells were separated by centrifugation at 200 g for 10 min and resuspended in normal saline. Various concentrations of melittin or melittin-carrying nanoparticles were added to a fixed number of red cells (5×10^7 cells) and incubated at 37° C. for 3 hours. The release of hemoglobin was quantified by measuring the absorbance at 540 nm of the supernatant in a Microplate Reader (Model 550, BioRad) after centrifugation. The absorbance of the supernatant obtained by incubating the red cells in water under identical conditions was set to 100%.

C-32 melanoma cells [1] = assay: Cytochrome c release assay; format: cell-based
Experimental: Cytochrome c is a water-soluble 15 kDa protein residing in the mitochondrial intermembrane space and is released early during apoptosis. To determine if melittin-loaded nanodroplets trigger release of cytochrome c, C-32 melanoma cells were treated with varying concentrations of melittin-nanoparticles for 1 hour at 37° C. following which the mitochondria were isolated by using the Mitochondrial Isolation Kit (Pierce Biotechnology, Rockford, Ill.). The cytochrome c present in the mitochondrial and cytosol fractions thus obtained was assayed by using the cytochrome c ELISA kit (Invitrogen, Carlsbad, Calif.).

C-32 melanoma cells [2] = assay: Cell proliferation inhibition (MTT) assay; format: cell-based; settings: 3 hours treatment, then 72 hours
Experimental: The effect of αvβ3-targeted melittin-nanoparticles on C-32 cancer cell proliferation was determined by the 3-[4,5-dimethylthiazol-2-yl]2,5-diphenyltetrazolium bromide (MTT) assay. The assay measures the activity of a mitochondrial enzyme that converts MTT, a tetrazolium salt, into a formazan crystal that absorbs at 570 nm.
(§1) C-32 melanoma cells were seeded in 96-well plates at a seeding density of 5,000 cells/well. After overnight incubation at 37° C., the cells were treated with free melittin, αvβ3-targeted or nontargeted melittin nanoparticles at various concentrations. At the end of 3 hours of incubation at 37° C., the cells were washed three times with PBS and incubated at 37° C. for a period of 72 hours. Then the medium was aspirated, and the cells rinsed with phosphate buffered saline (PBS) and 20 μl MTT solution (Sigma-Aldrich, St. Louis, Mo., final concentration 5 mg/ml in PBS) was added to each well. Cells were further incubated at 37° C. for 30 min, solubilized in 200 μl DMSO to dissolve the precipitated formazan and the absorbance read on a microplate reader (Biorad, Model 550) at 570 nm. Background absorbencies were subtracted and untreated control cells were set at 100% viability.

[3] = Surface plasmon resonance kinetics of melittin insertion in lipid monolayers (Biacore L1 chip); format: binding; settings: melittin 15 to 1,000 nM
Experimental: The kinetics of melittin insertion in lipid monolayers of perfluorocarbon nanoparticles was studied by surface plasmon resonance (SPR). SPR detects change in the reflective index of a surface. Biacore-X biosensor and carboxy methylated dextran chip L1 were obtained from Biacore, Inc (Piscataway, N.J.). All solutions were degassed and filtered through a 0.22 μm membrane as recommended. A uniform lipid monolayer on an L1 chip was created by injecting 35 μl PFOB nanoparticles (3 μl/min). Loosely deposited nanoparticles were removed by first increasing the flow rate to […] for 2 min followed by an injection of NaOH (50 μl, 10 mM) to ensure a stable baseline. Complete coverage was confirmed by injecting the negative control bovine serum albumin (25 μl, […] in PBS). Melittin in various concentrations was then injected at a flow rate of 30 μl/min (30 μl in PBS; 15 nM to 1000 nM) and the response recorded for 60 minutes. At the end of each experiment the chip was regenerated by two consecutive injections of 3-[(3-cholamidopropyl)dimethylammonio]-1-propanesulfonate (CHAPS) (50 μl, 100 μl/min). A series of sensorgrams was generated for the selected melittin concentrations. The data were analyzed globally by simultaneously fitting the peptide sensorgrams obtained at various concentrations using the BIAevaluation™ software (Biacore, Inc, Piscataway, N.J.). […]

C-32 melanoma cells [4] = assay: Lactate dehydrogenase release assay; format: cell-based; settings: 1 hour at 37° C., 0.1% triton-X 100 = 100%
Experimental: Lactate dehydrogenase (LDH) is a stable enzyme that is rapidly released from the cells upon plasma membrane damage. The lactate dehydrogenase release assay kit was obtained from BioVision (Mountain View, Calif.) and the assay performed according to manufacturers instructions. Briefly, C-32 melanoma cells were either treated with free melittin or melittin-nanoparticles at various concentrations for 1 hour at 37° C. and the amount of lactate dehydrogenase released quantified. Cells treated with 0.1% triton-X 100 were taken as 100% release.

[5] = tested on: cholesterol-depleted C-32 Melanoma cells; assay: Effect of cholesterol depletion on cell death (MTT assay); format: cell-based; settings: 0.25 mM and 0.5 mM, no melittin
Experimental: as §1
The role of cholesterol in modulating the melittin activity on the cell membrane was assessed by depleting cells of cholesterol before the cell proliferation assay and flow cytometry (as described above). […] To quantify the amount of cholesterol depleted by methyl beta cyclodextrin, total lipids were extracted from melanoma cells by standard procedure. […] The total cholesterol content in the cells was determined by using the Amplex® Red Cholesterol Assay kit (Sigma, St. Louis, Mo.). […]

C-32 melanoma cells [6] = assay: Cholesterol depletion, Amplex Red Cholesterol Assay; format: cell-based; settings: 15 min at 37° C.
Experimental: The role of cholesterol in modulating the melittin activity on the cell membrane was assessed by depleting cells of cholesterol before the cell proliferation assay and flow cytometry (as described above). C-32 Melanoma cells were treated with either 0.25 mM or 0.5 mM methyl beta cyclodextrin (Sigma, St. Louis, Mo.) for 15 min at 37° C. to deplete cholesterol. To quantify the amount of cholesterol depleted by methyl beta cyclodextrin, total lipids were extracted from melanoma cells by standard procedure. Briefly, 10^6 C-32 melanoma cells grown in 6-well tissue culture plates were scraped by a rubber policeman and the pellet obtained post-centrifugation was treated with 200 μl chloroform-methanol (2:1). After spinning top speed in a microcentrifuge, the organic phase was collected and vacuum dried. The dried lipids were then dissolved in 20 μl of 2-propanol containing 10% triton-X 100 as assay samples. The total cholesterol content in the cells was determined by using the Amplex® Red Cholesterol Assay kit (Sigma, St. Louis, Mo.). Cholesterol standard was used for calibration as per manufacturer's recommendations.

| Compound | IC50 (red cells) [nM] | release of cytochrome c from the mitochondria (C-32 melanoma cells [1]; 1 hour at 37° C., varying concentrations) | cytochrome c release (C-32 melanoma cells [1]; at the higher concentrations) [%] | IC50 (C-32 melanoma cells [2]) [nM] | association rate constant (ka) [3] | LDH release (C-32 melanoma cells [4]; 1 μM) | LDH release (C-32 melanoma cells [4]; 5 μM) | cell proliferation [5] | depletion of cholesterol (C-32 melanoma cells [6]; 0.25 mM) [%] | depletion of cholesterol (C-32 melanoma cells [6]; 0.5 mM) [%] |
| --- | --- | --- | --- | --- | --- | --- | --- | --- | --- | --- |
| CC[C@H](C)[C@H](NC(=O)CN)C(=O)NCC(=O)N[C@@H](C)C(=O)N[C@H](C(=O)N[C@@H](CC(C)C)C(=O)N[C@@H](CCCCN)C(=O)N[C@H](C(=O)N[C@@H](CC(C)C)C(=O)N[C@H](C(=O)N[C@H](C(=O)NCC(=O)N[C@@H](CC(C)C)C(=O)N1CCC[C@H]1C(=O)N[C@@H](C)C(=O)N[C@@H](CC(C)C)C(=O)N[C@H](C(=O)N[C@@H](CO)C(=O)N[C@@H](Cc1c[nH]c2ccccc12)C(=O)N[C@H](C(=O)N[C@@H](CCCCN)C(=O)N[C@@H](CCCNC(=N)N)C(=O)N[C@@H](CCCCN)C(=O)N[C@@H](CCCNC(=N)N)C(=O)N[C@@H](CCC(N)=O)C(=O)N[C@@H](CCC(N)=O)C(N)=O)[C@@H](C)CC)[C@@H](C)CC)[C@@H](C)O)[C@@H](C)O)C(C)C)C(C)C [free melittin, melittin] | 510 ± 120 | dose-dependent release | 55.48±6.1 | 930 ± 80 | 4.5±0.35×10^6 (Ms)^−1 | 19.17 (±4.2) percent | 68.14 (±7.1) percent and 68.14±4.3% | – | – | – |
| methyl beta cyclodextrin | – | – | – | – | – | – | – | no change in cell proliferation | 7 | 12 |
